What was measured:
plasma DPP-4 = target: T1, plasma DPP-4 (Mus musculus, UniProt P28843); assay: DPP-4 pharmacodynamics assay in mouse (plasma DPP-4 enzyme activity); assay type: in vivo; settings: C57B/L6 lean mice, oral gavage, vehicle group = 0%
T1 construct: Plasma, isolated from the blood samples, is used to determine the plasma DPP-4 enzyme activity; from tissue; host or cells: plasma of C57B/L6 mice dosed with compound
Protocol: To determine the in vivo DPP-4 inhibition by MetAP2 plus DPP-4 dual inhibitor compounds, C57B/L6 lean mice are administrated with the compound in fed states and then DPP-4 target engagement in plasma is measured. Animals are weighed and randomized by body weight. Each mouse is dosed via oral gavage with vehicle or testing compound formulated with vehicle for up to 3 times. The first dose is administrated at 9˜10 am on day 1. The second dose is administrated at 16:30˜17:30 on day 1. The third dose is administrated at 9˜10 am on day 2. The mice are fasted for 6 hours after the last dose before termination at ˜[…] on day 2. Blood samples are collected at 1 hour after the first dosing and upon termination. EDTA-K2 at final concentration of 5 mM is used as an anticoagulant. Plasma, isolated from the blood samples, is used to determine the plasma DPP-4 enzyme activity. Plasma DPP-4 enzyme activity in the present invention is monitored by the formation rate of fluorescence AMC from substrate Gly-Pro-AMC (Sigma, G2761) via Envision plate reader. […] Fluorescence signal is read immediately after the start of the reaction in kinetic model in Envision plate reader. […] The plasma DPP-4 activity is calculated from reaction velocity. […]

[1] = target: T2, Human DPP-4 ((39-766)-His) (Homo sapiens, UniProt P27487); assay: Enzymatic activity assay of human DPP-4 (Gly-Pro-AMC fluorescence); assay type: biochemical; settings: Mean ± SEM; substrate 10 μM, 30 minutes; read-out: hDPP-4 IC50
T2 construct: Human DPP-4 ((39-766)-His); His (C); made in house
T2 sequence (P27487 39-766): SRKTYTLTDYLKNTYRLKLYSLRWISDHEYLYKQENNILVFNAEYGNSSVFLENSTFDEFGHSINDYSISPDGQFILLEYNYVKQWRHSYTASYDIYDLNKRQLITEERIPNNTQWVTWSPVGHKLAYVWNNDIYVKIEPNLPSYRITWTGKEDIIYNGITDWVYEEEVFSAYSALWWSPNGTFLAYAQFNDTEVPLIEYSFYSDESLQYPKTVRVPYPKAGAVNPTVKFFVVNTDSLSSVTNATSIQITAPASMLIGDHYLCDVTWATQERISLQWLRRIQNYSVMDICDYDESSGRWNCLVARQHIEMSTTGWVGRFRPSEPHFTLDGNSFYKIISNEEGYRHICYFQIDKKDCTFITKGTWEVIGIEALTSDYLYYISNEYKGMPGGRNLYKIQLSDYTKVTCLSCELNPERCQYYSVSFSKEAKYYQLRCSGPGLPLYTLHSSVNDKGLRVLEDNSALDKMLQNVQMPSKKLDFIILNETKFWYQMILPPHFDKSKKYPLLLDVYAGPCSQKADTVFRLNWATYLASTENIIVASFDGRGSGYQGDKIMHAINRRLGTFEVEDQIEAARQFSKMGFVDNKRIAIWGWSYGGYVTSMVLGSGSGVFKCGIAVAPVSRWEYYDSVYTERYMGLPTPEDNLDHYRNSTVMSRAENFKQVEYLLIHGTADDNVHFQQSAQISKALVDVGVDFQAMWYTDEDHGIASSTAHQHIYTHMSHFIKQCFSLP
Protocol: (§1) Human DPP-4 ((39-766)-His) and mouse DPP-4 ((29-760)-His) are purified for use in the assay. The final concentration of hDPP-4 and mDPP-4 in the assay is 0.04 nM and 0.22 nM respectively.
(§2) Inhibition of the catalytic activity of human and mouse DPP-4 by the compound in the present invention is monitored by the formation of product fluorescence AMC (7-amido-4-methylcoumarin hydrobromide) from substrate Gly-Pro-AMC (Sigma, G2761) on an Envision plate reader. The reaction is typically conducted by incubating the enzyme, test compound, and substrate (10 μM) in a 75 μl assay buffer (0.01% BSA, 0.1 mM EDTA, […], 0.01% Triton™-X100, 0.1 M NaCl at pH 7.5) for 30 minutes. After the reaction is stopped by the addition of 25 μl ZnSO4 (10 mM), the formation of fluorescent product AMC is measured on an Envision plate reader with the excitation wavelength at 355 nm and emission wavelength at 460 nm. The IC50 value is calculated typically from a 10-point dose titration curve using the 4-parameter logistic equation.

mouse MetAP2 = target: T3, mouse MetAP2 (Mus musculus, UniProt O08663); assay: Enzymatic activity assay of mouse MetAP2 (LC/MS product peptide); assay type: biochemical; settings: Mean ± SEM; substrate 150 μM, 40 minutes; read-out: mMetAP2 IC50
T3 construct: Full length MetAP2 (human and mouse) and MetAP1 (human) proteins are generated from Sf9 cells; made in house; host or cells: Sf9 cells
T3 sequence (O08663 whole entry): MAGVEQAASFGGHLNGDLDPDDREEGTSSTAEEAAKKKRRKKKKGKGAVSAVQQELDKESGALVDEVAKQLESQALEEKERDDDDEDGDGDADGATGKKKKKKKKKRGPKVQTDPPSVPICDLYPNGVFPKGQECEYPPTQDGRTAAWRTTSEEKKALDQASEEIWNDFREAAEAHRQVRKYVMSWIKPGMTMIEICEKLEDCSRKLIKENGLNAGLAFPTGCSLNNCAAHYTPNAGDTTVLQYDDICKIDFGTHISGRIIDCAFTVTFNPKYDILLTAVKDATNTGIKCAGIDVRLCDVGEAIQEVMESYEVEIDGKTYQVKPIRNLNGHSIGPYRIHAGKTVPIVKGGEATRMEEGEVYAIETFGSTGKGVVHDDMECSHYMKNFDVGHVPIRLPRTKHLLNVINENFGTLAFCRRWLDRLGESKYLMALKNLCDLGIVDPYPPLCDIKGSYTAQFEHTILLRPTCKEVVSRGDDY
Protocol: (§3) Full length MetAP2 (human and mouse) and MetAP1 (human) proteins are generated from Sf9 cells using procedure similar to that described in Biochemistry 2003, 42, 5035-5042. MetAP2 and MetAP1 are purified in the presence of 5 mM MnCl2 and 2 mM CoCl2 respectively, and stored at −78° C. before use.
(§4) Inhibition of the catalytic activity of human and mouse MetAP2 by compounds in the present invention is measured by monitoring the formation of the product peptide (Gly-Lys-Val-Lys-Val-Gly-Val-Asn-Gly) from the substrate peptide (Met-Gly-Lys-Val-Lys-Val-Gly-Val-Asn-Gly) via LC/MS. The reaction is typically conducted by incubating the enzyme, test compound and substrate (150 μM) in a 100 μl assay buffer (50 mM HEPES, 100 mM NaCl, […], 0.17 mM Triton™ X-100 μl at pH 7.5) for 40 minutes. After the reaction is stopped by the addition of 200 μl CH3CN, the levels of product and remaining substrate are quantified with a mass spectrometer. The activity of human MetAP1 is monitored by the formation of the fluorescent product rhodamine-methionine from the substrate methionine-rhodamine-methionine on a spectrophotometer with the excitation light at 460 nm and emission light at 535 nm. The reaction is typically conducted by incubating the enzyme, test compound and substrate (50 μM) in a 100 μl assay buffer (50 mM HEPES, 100 mM NaCl, 0.1% BSA, 0.05% Tween®-20, 50 μM CoCl2) for 60 minutes. […]

human MetAP2 = target: T4, human MetAP2 (Homo sapiens, UniProt P50579); assay: Enzymatic activity assay of human MetAP2 (LC/MS product peptide); assay type: biochemical; settings: Mean ± SEM; substrate 150 μM, 40 minutes; read-out: hMetAP2 IC50
T4 construct: Full length MetAP2 (human and mouse) and MetAP1 (human) proteins are generated from Sf9 cells; made in house; host or cells: Sf9 cells
T4 sequence (P50579 whole entry): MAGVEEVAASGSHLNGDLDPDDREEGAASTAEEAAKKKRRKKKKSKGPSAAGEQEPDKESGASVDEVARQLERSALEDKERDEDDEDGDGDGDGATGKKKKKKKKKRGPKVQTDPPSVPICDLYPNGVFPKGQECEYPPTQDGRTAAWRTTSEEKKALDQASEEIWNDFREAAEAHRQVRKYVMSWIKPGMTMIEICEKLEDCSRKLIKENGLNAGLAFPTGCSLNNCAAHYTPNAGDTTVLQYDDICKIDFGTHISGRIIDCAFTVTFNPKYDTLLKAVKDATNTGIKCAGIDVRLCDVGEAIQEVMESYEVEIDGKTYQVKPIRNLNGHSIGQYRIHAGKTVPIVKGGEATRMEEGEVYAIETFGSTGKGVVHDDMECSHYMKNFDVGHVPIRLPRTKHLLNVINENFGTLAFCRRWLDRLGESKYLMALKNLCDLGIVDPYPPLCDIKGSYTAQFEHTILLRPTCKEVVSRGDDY
Protocol: as §3, §4

obese DIO mice = assay: Therapeutic weight loss effect in high fat diet induced obese (DIO) mice; assay type: in vivo, mouse; settings: day 14
Protocol: To determine the therapeutic weight loss effects and improvement of metabolic parameters, the compound from the invention is tested in the high fat diet (HFD) feeding induced obese mouse model (DIO mice). In this model, C57/Bl6J male mouse is fed with the 60% HFD (D12492i, Research Diets) for 16˜28 weeks to establish obesity with body weight reaching around 50 g. The mice will gradually increase the body weight to about 50 g and maintain that weight in this obese state. Test compound (via the vehicle of 0.5% HEC plus 0.25% Tween®-80 at 5 mL/kg) is administered orally to the obese DIO mice once or twice daily throughout the study duration. The dose-dependent weight loss of obese DIO mice for Example 1 of the oral treatment at 20 mg/kg and 60 mg/kg once daily is about 4% and 17% weight loss compared to the vehicle group at day 14, respectively. The data support that the compound of Example 1 is associated with desired weight loss and could offer a therapeutic weight loss effect.

human MetAP1 = target: T5, human MetAP1 (Homo sapiens, UniProt P53582); assay: Enzymatic activity assay of human MetAP1 (fluorescence, rhodamine-methionine); assay type: biochemical; settings: substrate 50 μM, 60 minutes; read-out: hMetAP1 IC50
T5 construct: Full length MetAP2 (human and mouse) and MetAP1 (human) proteins are generated from Sf9 cells; made in house; host or cells: Sf9 cells
Protocol: as §3, §4

[2] = target: T6, mouse DPP-4 ((29-760)-His) (Mus musculus, UniProt P28843); assay: Enzymatic activity assay of mouse DPP-4 (Gly-Pro-AMC fluorescence); assay type: biochemical; settings: Mean ± SEM; substrate 10 μM, 30 minutes; read-out: mDPP-4 IC50
T6 construct: mouse DPP-4 ((29-760)-His); His (C); made in house
T6 sequence (P28843 29-760): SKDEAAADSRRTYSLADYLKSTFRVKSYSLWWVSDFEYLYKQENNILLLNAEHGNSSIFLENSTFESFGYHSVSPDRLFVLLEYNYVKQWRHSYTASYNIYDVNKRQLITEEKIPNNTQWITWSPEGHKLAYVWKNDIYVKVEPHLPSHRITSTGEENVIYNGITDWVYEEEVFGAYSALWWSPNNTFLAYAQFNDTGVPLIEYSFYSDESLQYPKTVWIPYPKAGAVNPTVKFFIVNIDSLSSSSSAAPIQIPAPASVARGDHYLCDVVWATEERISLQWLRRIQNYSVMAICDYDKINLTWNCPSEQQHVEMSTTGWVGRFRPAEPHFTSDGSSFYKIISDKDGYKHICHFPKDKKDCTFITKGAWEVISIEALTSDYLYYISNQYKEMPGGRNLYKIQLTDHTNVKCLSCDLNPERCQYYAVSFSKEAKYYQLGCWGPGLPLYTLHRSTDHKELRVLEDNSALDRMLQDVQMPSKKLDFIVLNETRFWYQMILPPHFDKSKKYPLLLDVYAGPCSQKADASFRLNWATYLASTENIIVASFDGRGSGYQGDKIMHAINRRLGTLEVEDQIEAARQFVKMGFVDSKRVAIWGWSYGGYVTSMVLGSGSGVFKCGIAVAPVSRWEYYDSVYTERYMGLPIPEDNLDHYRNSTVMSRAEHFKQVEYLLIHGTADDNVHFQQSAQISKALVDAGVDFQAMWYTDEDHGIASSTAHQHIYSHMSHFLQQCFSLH
Protocol: as §1, §2

T1 sequence (P28843 37-760 limits assumed): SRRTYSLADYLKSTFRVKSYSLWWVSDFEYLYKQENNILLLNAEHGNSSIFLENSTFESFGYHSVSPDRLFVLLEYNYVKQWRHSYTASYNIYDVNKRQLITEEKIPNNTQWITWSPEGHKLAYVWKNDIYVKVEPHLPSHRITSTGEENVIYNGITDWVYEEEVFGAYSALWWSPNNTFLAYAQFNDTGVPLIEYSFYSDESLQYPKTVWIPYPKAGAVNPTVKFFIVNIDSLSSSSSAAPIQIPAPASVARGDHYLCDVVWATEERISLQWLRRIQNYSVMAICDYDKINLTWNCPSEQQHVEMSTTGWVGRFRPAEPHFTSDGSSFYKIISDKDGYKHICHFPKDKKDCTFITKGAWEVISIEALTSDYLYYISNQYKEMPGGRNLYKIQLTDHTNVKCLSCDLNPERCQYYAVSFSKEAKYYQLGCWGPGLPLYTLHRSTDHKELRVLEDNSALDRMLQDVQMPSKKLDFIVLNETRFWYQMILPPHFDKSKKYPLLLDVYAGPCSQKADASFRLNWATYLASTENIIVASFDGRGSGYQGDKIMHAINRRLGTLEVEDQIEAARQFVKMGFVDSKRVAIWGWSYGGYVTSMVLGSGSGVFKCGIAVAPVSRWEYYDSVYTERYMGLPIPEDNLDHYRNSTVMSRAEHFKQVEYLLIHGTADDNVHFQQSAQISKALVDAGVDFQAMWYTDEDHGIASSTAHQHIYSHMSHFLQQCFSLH

plasma DPP-4 inhibition (plasma DPP-4; 1 hour after the first dosing): 86%
plasma DPP-4 inhibition (plasma DPP-4; upon termination (6 hours after the last dose, day 2)): 83%
IC50 [1]: 6 ± 2 nM
IC50 (mouse MetAP2): 36 ± 34 nM
IC50 (human MetAP2): 9 ± 3 nM
IC50 (human MetAP1): > 30000 nM
IC50 [2]: 26 ± 11 nM
Compound: N[C@H]1CN(c2ncc(Oc3c[nH]nc3C3=CCC(F)(F)CC3)cn2)C[C@@H]1c1cc(F)c(F)cc1F [Example 1, (3R,4S)-1-[5-[[3-(4,4-Difluorocyclohexen-1-yl)-1H-pyrazol-4-yl]oxy]pyrimidin-2-yl]-4-(2,4,5-trifluorophenyl)pyrrolidin-3-amine]
weight loss compared to the vehicle group (obese DIO mice; oral 20 mg/kg once daily): about 4%
weight loss compared to the vehicle group (obese DIO mice; oral 60 mg/kg once daily): ~17%
